We go through 12 compounds from patent US20100285032A1, “ESTROGEN RECEPTOR-RELATED RECEPTOR GAMMA (ERR GAMMA) IN BONE AND CARTILAGE FORMATION AND METHODS AND COMPOSITIONS RELATING TO SAME” (priority 2007, published 2010).

One series concerns ERRs. As to conditions: cited from earlier work.
The next series has as its system rat calvaria (RC) cells. In words: Bone nodule formation in rat calvaria (RC) cell cultures after oligonucleotide treatment. Type of series: cell-based. The procedure: (§1) Cells were isolated from 21-day-old fetal Wistar rat or neonatal mouse calvariae or were the chondrogenic C5.18 cell line and were grown for osteogenic or chondrogenic differentiation as described previously (Bonnelye et al., 2001; Bonnelye et al., 2007). Medium was replaced every second day and cells were cultured at 37° C. in a 5% CO2 humidified atmosphere for 15-20 days until mineralized bone nodules or cartilage nodules had formed in control cultures.
(§2) Rat calvarial cells were plated into 24 well plates at 10^4 cells/well. Antisense oligonucleotide inhibition of ERRγ expression was accomplished with a 20-base phosphorothioate-modified oligonucleotide. Control dishes were treated with the complementary sense oligonucleotide or no oligonucleotide. Briefly, oligonucleotide concentrations that have been found previously not to be toxic (0.5 μM to 2 μM) were added directly to cells during the proliferation (day 1-5) or differentiation phase (day 5 (end of proliferation) to 11) in standard medium as above supplemented with 50 μg/ml ascorbic acid, 10 mM sodium β-glycerophosphate. Medium was changed every 2 days and fresh oligonucleotides were added at each change. At day 15, cultures were terminated and stained for alkaline phosphatase according to previous protocols (Bonnelye et al., 2001).

The subject of a further series is C5.18 cells. In words: Cartilage nodule formation in C5.18 cell cultures after oligonucleotide treatment. The class given is cell-based, rat. To be noted: C5.18 cultures, treated during differentiation phase. The procedure:
as §1, §2

A further series deals with T1, ERRα (Homo sapiens, UniProt P11474).
T1 construct: host or cells: yeast
T1 sequence (P11474 1-423): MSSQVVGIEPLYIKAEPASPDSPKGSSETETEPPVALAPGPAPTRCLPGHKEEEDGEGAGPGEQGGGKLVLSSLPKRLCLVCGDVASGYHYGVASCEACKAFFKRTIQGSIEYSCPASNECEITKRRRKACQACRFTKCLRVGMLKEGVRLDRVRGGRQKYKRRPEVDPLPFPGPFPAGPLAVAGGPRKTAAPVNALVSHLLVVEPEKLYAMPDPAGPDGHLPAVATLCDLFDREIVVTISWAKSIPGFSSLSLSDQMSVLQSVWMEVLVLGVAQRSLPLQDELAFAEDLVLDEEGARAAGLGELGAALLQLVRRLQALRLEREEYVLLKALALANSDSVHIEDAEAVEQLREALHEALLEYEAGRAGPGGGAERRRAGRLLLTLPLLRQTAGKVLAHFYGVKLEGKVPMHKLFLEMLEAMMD
As to conditions: yeast-based and mammalian transient transfection assays; cited from earlier work.

In another series the test system is PGC-1/ERRα. To be noted: cited from earlier work.
The next series deals with T2, ERRγ (Homo sapiens, UniProt P62508).
T2 sequence (P62508 1-458): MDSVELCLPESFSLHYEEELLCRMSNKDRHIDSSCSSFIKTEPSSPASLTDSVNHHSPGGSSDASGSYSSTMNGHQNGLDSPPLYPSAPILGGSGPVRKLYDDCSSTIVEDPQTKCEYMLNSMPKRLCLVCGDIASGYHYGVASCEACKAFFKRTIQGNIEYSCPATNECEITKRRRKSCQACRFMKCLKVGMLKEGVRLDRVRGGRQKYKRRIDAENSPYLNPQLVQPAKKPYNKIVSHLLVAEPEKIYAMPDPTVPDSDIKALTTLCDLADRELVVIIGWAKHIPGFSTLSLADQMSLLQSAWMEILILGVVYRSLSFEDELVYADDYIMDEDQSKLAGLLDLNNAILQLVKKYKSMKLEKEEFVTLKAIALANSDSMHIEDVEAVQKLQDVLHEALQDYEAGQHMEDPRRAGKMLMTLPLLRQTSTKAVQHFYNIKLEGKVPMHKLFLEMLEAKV
As to conditions: cited from earlier work.

For the compound `O=c1c(-c2ccc(O)cc2)coc2cc(O)cc(O)c12` [genistein], in the series with ERRs, the “activity on ERRs (agonist/antagonist)” value was “agonists of ERRs”. In the case of “ggtGGTTGACGCTGTCCGTCagg (antisense GGTGGTTGACGCTGTCCGTCAGG; all phosphorothioate, sugars by position and methylation of C not given here) [antisense oligonucleotide]”, the bone nodule formation result was “significantly increased” in the series on rat calvaria (RC) cells (RC cultures, treated during differentiation phase (day 5 to 11)); “significantly increased” with rat calvaria (RC) cells (RC cultures, treated during proliferation phase (day 1-5)); “increases bone nodule formation” in the series with rat calvaria (RC) cells (rat calvaria osteoblastic cells, treatment phase not stated). Also, in the series on C5.18 cells, the cartilage nodule formation entry is listed as “tended to increase”. Consider `CC1(C)C(C(Cl)Cl)C2(Cl)C(Cl)C(Cl)C1(Cl)C2(Cl)Cl` (stereo not shown) [toxaphene], for which the “effect on constitutive activity of ERRα” value at ERRα is “suppress the constitutive activity of ERRα”. `COc1cc(/C=C(\C#N)C(=O)Nc2nnc(C(F)(F)F)s2)ccc1OCc1ccc(C(F)(F)F)cc1C(F)(F)F` [XCT790]: the “activity on PGC-1/ERRα dependent signaling” value with PGC-1/ERRα is given as “inverse agonists”.

Turning to `CN(C)CCOc1ccc(/C(=C(/CCCl)c2ccccc2)c2ccc(O)cc2)cc1` [4-hydroxytoremifene], at ERRγ, the “activity on ERRγ (agonist/antagonist)” value is on record as “antagonize ERRγ”.

As for `ClC1=C(Cl)C2(Cl)C3C(Cl)C(Cl)CC3C1(Cl)C2(Cl)Cl` (stereo not shown) [chlordane], at ERRα, the “effect on constitutive activity of ERRα” value is on record as “suppress the constitutive activity of ERRα”. For `O=c1c(-c2ccc(O)cc2)coc2cc(O)ccc12` [daidzein], the “activity on ERRs (agonist/antagonist)” value with ERRs is reported as “agonists of ERRs”.

For the compound `CC/C(=C(/CC)c1ccc(O)cc1)c1ccc(O)cc1` [diethylstilbestrol], the “activity on ERRs (agonist/antagonist)” value in the series with ERRs is “antagonists of ERRs”. As for 4-hydroxytamoxifen, the “activity on ERRγ (agonist/antagonist)” value at ERRγ is given as “antagonize ERRγ”. Besides, the “activity on ERRs (agonist/antagonist)” value in the series on ERRs is “antagonists of ERRs”. For `CC(C)c1ccc(/C=N/NC(=O)c2ccc(O)cc2)cc1` [GSK4716], the “activity on ERRγ (agonist/antagonist)” value at ERRγ is listed as “agonists of ERRγ”. Turning to `COc1ccc(-c2coc3cc(O)cc(O)c3c2=O)cc1` [biochanin A], the “activity on ERRs (agonist/antagonist)” value in the series on ERRs is “agonists of ERRs”. For the compound `O=c1cc(-c2ccc(O)c(O)c2)oc2ccc(O)cc12` [6,3′,4′-trihydroxyflavone], the “activity on ERRs (agonist/antagonist)” value in the series with ERRs is reported as “agonists of ERRs”.
